Test results as given in EP4790048A1, “S1PR4 REGULATOR COMPOUND FOR AUTOIMMUNE DISEASE TREATMENT AND APPLICATION THEREOF” (Shengyuan Zetong (Shanghai) Pharmaceutical Co., Ltd, priority 2023, dated 2025).

Assays:
hS1P4-R-79C = biological target: T1, hS1P4-R-79C (Homo sapiens, UniProt O95977, R79C); assay: Tango β-arrestin recruitment luciferase assay, Tango-hS1P4-R-79C-CHO (S1PR4 mutant); assay type: cell-based; settings: 20 h drug treatment
T1 construct: expressed in transfected cells; host or cells: CHO
T1 sequence (O95977 1-384 R79C): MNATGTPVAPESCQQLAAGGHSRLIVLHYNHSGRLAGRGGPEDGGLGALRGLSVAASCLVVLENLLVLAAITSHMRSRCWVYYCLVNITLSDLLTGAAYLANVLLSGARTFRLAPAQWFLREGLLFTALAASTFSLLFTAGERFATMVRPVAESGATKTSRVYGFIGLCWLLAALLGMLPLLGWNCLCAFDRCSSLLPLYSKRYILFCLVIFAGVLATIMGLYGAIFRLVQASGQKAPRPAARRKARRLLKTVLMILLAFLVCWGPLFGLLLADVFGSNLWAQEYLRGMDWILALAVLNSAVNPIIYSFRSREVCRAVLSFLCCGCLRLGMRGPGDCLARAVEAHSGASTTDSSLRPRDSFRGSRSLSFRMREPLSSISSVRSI
From the text: The Tango assay detects ligand-dependent GPCR activity through the interaction between β-arrestin and GPCRs. […] The NTEV fragment and the tetracycline transactivator (tTA), an artificial transcription factor, are fused at the C-terminus of the GPCR, while the CTEV fragment is fused to human β-arrestin 2. To enhance the stability of the interaction between GPCR and β-arrestin, a short sequence from the C-terminus of the human arginine vasopressin receptor 2 (V2 tail) is inserted between the GPCR and NTEV. The V2 tail contains multiple GRK phosphorylation sites, which strengthen β-arrestin binding upon phosphorylation. The CTEV fragment carries the stabile point mutation S219P and is truncated at residue 221 to remove the autoinhibitory C-terminal tail. Meanwhile, β-arrestin 2 is truncated to lack the entire C-terminal tail (residues 383-410 deleted). This truncation confers robust stimulus-dependent receptor desensitization, thereby improving detection sensitivity compared with wild-type β-arrestin 2. The UAS reporter construct consists of upstream activating sequence (UAS) elements, a minimal CMV promoter, and a tTA-dependent luciferase reporter gene. Therefore, constructing Tango cells requires the co-transfection of the above three plasmids into host cells. Upon GPCR activation and β-arrestin recruitment, the TEV enzyme at the β-arrestin terminus cleaves tTA from the GPCR C-terminus. The released tTA initiates tTA-dependent luciferase transcription, and compound activity is ultimately determined by measuring luminescence intensity.
• 1) Tango cell line from was digested from the culture dish respectively. After cell counting, the cells were plated at a density of 10,000 cells per well with […] into a white opaque 96-well plate (add 60 µL D'Hanks to the surrounding wells), and incubated overnight (20 h) in a 5% CO2 incubator at 37°C. The cell density will reach approximately 90% the next day. • 2) After 20 h, 30 µL of serially diluted compound solution was added to each well. The control group was supplemented with 30 µL F12K complete medium. Each group had three replicate wells. • 3) Samples were collected after 20 h of drug treatment.
(All compounds were tested at a final concentration of 45 µM, with 9 serial dilutions at 5-fold intervals. 1 µM BAF-312 was used as the positive control for S1PR1, and 25 µM BAF-312 was used as the positive control for S1PR4.

BALB/c mice = assay: DSS-induced acute ulcerative colitis in mice (Example 6); assay type: in vivo; settings: for survival rate: 8 mice, model group 75%
Experimental: From Day 0 to Day 14 of the experiment, the mice were weighed daily and their blood and stool conditions were observed, scored and recorded according to the following table (Table 1). Random grouping was performed on Day 1, and modeling was conducted from Day 1 to Day 7. All groups except the Control group were given 3.5% DSS water daily. Re-grouping was performed on Day 8. The Control group and Model group received no medication and were given tap water; the other groups were administered intragastrically with 1 mg/kg, 3 mg/kg, 9 mg/kg, and SASP (Sulfasalazine or Salicylazosulfapyridine) 500 mg/kg, respectively. On Day 15, blood and colon samples were collected, colon length was measured, and a 1-2 cm segment of the colon was fixed with formaldehyde.
• BALB/c mice, male, 20-22 g • Dextran sulfate sodium MW: 36,000-50,000 (DSS) • 30 1 mg/kg, 3 mg/kg, 9 mg/kg, SASP (500 mg/kg) indicators were observed.
(1) Clinical Symptom Score: The mice were weighed daily and their blood and stool were observed during the experiment for DAI scoring, which was graded and recorded according to the following table (Table 1).
(2) After the experiment, the colon was removed, its length measured and weight recorded. The colon-to-body weight index (colon weight/body weight × 100%) and colon swelling rate (colon weight/length × 100%) were calculated.
Colonic tissue approximately 1 cm from the anal margin (0.5 cm) and ileocecal region tissue were collected for histopathological examination. After H&E staining, the tissues were scored under single-blind conditions to evaluate the level of distal colon inflammation and tissue damage; scoring was performed according to the Ameho criteria and calculated as follows: • Score 0: No abnormal findings in the texture. • Score 1: Mild inflammatory infiltration of the mucosa and/or submucosa (mixed with neutrophils), submucosal edema, punctate mucosal erosion, accompanied by capillary proliferation. The muscularis mucosae is intact. • Score 2: Changes of Score 1 account for more than 50%. • Score 3: Obvious inflammatory infiltration and edema (neutrophils are often predominant); ulcers usually penetrate the muscularis mucosae to reach the submucosa. There is little inflammatory cell infiltration in the muscularis propria and no muscle necrosis. • Score 4: Changes of Score 3 account for more than 50%. • Score 5: Large confluent ulcers with coagulative necrosis, massive neutrophil infiltration at the margins and few monocytes. Necrotic tissue penetrates the muscularis propria. • Score 6: Changes of Score 5 account for more than 50% of the specimen.
The fence function of Occludin separates the apical and basolateral sides of the epithelial cell plasma membrane, restricting the free flow of lipids on the cell membrane, facilitating the formation of cell polarity, maintaining the impermeability and rigidity of the intestinal mucosa, and preventing the entry of pathogenic microorganisms. The barrier function of Occludin can regulate the transport of small molecules and maintain tissue homeostasis. […]

Structure (SMILES): CCc1cc(/C(C)=N/OCc2ccc(-c3ccccc3)c(C)c2)ccc1CN1CC[C@H](C(=O)O)C1 [Compound 30]
- EC50 (hS1P4-R-79C): 15 nM
- survival rate (BALB/c mice; 30 1 mg/kg intragastric from Day 8): 87.5%
- colon length (BALB/c mice; 30 1 mg/kg, p<0.05 vs Model group): significantly inhibited DSS-induced colon shortening
- survival rate (BALB/c mice; 30 3 mg/kg intragastric from Day 8): 87.5%
- colon length (BALB/c mice; 30 3 mg/kg, p<0.01 vs Model group): significantly inhibited DSS-induced colon shortening
- total DAI scores over 14 days (BALB/c mice; 30 3 mg/kg, vs model group): significantly lower
- survival rate (BALB/c mice; 30 9 mg/kg intragastric from Day 8): 75%
- body weight recovery (BALB/c mice; 30 at 3 mg/kg, SASP at 500 mg/kg, vs model group): faster body weight recovery with a greater rebound amplitude
- colon pathological changes (H&E staining) (BALB/c mice; 30 at 9 mg/kg): obvious inflammatory cell infiltration and reduced goblet cells
- daily DAI score (BALB/c mice; 30 treatment groups, SASP 500 mg/kg, vs model group): decreased more rapidly
- colon pathological changes (H&E staining) (BALB/c mice; Compound 30 1 mg/kg): no obvious inflammatory cell infiltration was observed
- colon pathological changes (H&E staining) (BALB/c mice; Compound 30 3 mg/kg): no obvious inflammatory cell infiltration was observed
- Occludin expression in colonic mucosa (immunohistochemistry) (BALB/c mice; vs Model group): the expression of Occludin was increased
- Occludin protein in colon (Western blotting) (BALB/c mice; vs Model group): increase the expression of Occludin
